Structures can show the parent of a compound that is named as a salt.
Assay: Oil-water partition ratio
Format: physicochemical
Settings: 0.05% by mass aqueous solution vs oil phase soybean oil:MCT 1:1, 25° C.
Procedure: 5 g of an oil phase (soybean oil:medium-chain fatty acid triglyceride=1:1) was added to 5 g of a 0.05% by mass aqueous levobupivacaine hydrochloride solution, and the mixture was stirred with a vortex mixer for 1 minute. After that, the whole was transferred to a centrifugation tube and centrifuged at 3600 rpm at 25° C. for 10 minutes, and the aqueous phase was separated. The levobupivacaine concentration of the aqueous phase was measured by HPLC, and the oil-water partition ratio was determined.

In the case of `CCCCN1CCCC[C@H]1C(=O)Nc1c(C)cccc1C` [levobupivacaine hydrochloride, (2S)-1-butyl-N-(2,6-dimethylphenyl)piperidine-2-carboxamide], the “proportion present in the aqueous phase (oil-water partition ratio)” value is reported as 94.3%.

Reference: patent US20200030305A1, “LOCAL ANESTHETIC-CONTAINING ACIDIC EMULSION COMPOSITION” (Maruishi Pharmaceutical Co., Ltd., priority 2017, published 2020)
